According to US12662494B2, “Optically active bridged piperidine derivative” (Sumitomo Pharma Co., Ltd., priority 2018, dated 2026):

What was measured:
[1] = test system: RS4; 11 cells; assay: Test 2: inhibition of cell proliferation, RS4;11; format: cell-based; conditions: for IC50: Homo sapiens, 168 h, RS4;11 cells, 7 days, PrestoBlue cell viability; for cell proliferation inhibition activity, good (in words): summary of Test 2 table, RS4;11 and MOLM-13
Description: (§1) Test 2: Test for Evaluating the Inhibition of Cell Proliferation
(§2) RS4; 11 cells were obtained from American Type Culture Collection (ATCC). The cells were cultured at 37° C. in the presence of 5% CO2 in RPMI 1640 medium containing 10% fetal bovine serum and 1% penicillin/streptomycin. MOLM-13 cells were separately obtained from DSMZ (Deutsche Sammlung von Mikroorganismen und Zellkulturen GmbH). The cells were cultured at 37° C. in the presence of 5% CO2 in RPMI 1640 medium containing […] and 1% penicillin/streptomycin.
(§3) The cells were plated to a 96-well plate in 2000 cells/well, each test compound was added thereto to adjust the final concentration of DMSO to 0.1% of DMSO, and the cells were cultured for 7 days. After the cultivation, the cell viability was calculated with PrestoBlue™ Cell Viability Reagent (Invitrogen, A13261). The IC50 value was calculated from a survival curve, that corresponds to the concentration of the test compound at which the cell proliferation inhibition rate is 50%.

[2] = biological target: T1, Menin-MLL binding (His-Menin1-615 and MLL1-172-FLAG) (Homo sapiens, UniProt O00255); assay: Test 1: inhibition of the menin-MLL binding (HTRF); conditions: for IC50: His-Menin1-615 30 nmol/L, MLL1-172-FLAG 50 nmol/L
T1 construct: Menin1-615 wherein 6× His tag and HA tag are inserted in the N-terminus; HA (N); myc (C)
T1 sequence (O00255 1-615 isoform O00255-1): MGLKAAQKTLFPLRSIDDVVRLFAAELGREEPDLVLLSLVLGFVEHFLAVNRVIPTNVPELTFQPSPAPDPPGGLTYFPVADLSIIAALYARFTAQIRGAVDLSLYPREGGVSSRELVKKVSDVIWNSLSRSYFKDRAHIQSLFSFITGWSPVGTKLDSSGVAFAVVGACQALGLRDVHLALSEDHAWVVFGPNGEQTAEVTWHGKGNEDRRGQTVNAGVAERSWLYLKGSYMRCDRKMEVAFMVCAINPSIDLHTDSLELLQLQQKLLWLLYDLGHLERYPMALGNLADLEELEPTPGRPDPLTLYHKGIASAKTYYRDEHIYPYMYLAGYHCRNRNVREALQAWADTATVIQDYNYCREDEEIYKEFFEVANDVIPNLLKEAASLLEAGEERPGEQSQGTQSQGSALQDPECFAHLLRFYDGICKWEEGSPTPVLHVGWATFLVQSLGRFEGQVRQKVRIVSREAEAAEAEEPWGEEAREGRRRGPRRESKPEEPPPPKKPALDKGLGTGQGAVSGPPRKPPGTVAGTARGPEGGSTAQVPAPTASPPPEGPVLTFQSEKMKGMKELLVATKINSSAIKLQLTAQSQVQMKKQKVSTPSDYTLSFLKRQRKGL
Description: Test 1: Test for Evaluating the Inhibition of the Menin-MLL Binding
Menin1-615 wherein 6× His tag and HA tag are inserted in the N-terminus, and myc tag is inserted in the C-terminus (hereinafter, referred to as His-Menin1-615), was diluted with an assay buffer (25 mmol/L HEPES, 150 mmol/L NaCl, 1 mmol/L dithiothreitol, 0.5% (w/v) Tween 80, 0.3% (w/v) BSA, 0.3% (w/v) skim milk) to adjust the final concentration to 30 nmol/L. The test compounds were also diluted with the assay buffer to adjust each concentration of the test compounds to 0.005 to 5 μmol/L. The prepared His-Menin1-615 and test compounds were added to a light-shielding 384-well low-volume plate (Corning, #4514) in 2 μL/well and […], respectively, and the plate was covered with a lid for light-shielding (Corning, #3935), and incubated at room temperature for 3 hours. After the incubation, MLL1-172 wherein FLAG tag is inserted in the C-terminus (MLL1-172-FLAG), was separately diluted with the assay buffer to adjust the final concentration to 50 nmol/L. The prepared MLL1-172-FLAG was added to the above plate in 2 μL/well, and the plate was covered with a lid for light-shielding and incubated at room temperature for an hour.
Then, anti-6HIS-d2 antibody (cisbio, 61HISDLA) and anti-FLAGM2-K antibody (cisbio, 61FG2KLA) were diluted with an antibody dilution buffer (50 mmol/L Tris, 150 mmol/L NaCl, 800 mmol/L KF, pH 7.4) to adjust the final concentration to 1.4 μg/mL to prepare an antibody mixture. The prepared antibody mixture was added to the above plate in 10 μL/well, and the plate was covered with a lid and incubated at 4° C. for 17 to 24 hours. After the incubation, the signal was detected with RUBYstar (BMG LABTECH).

[3] = test system: MOLM-13 cells; assay: Test 2: inhibition of cell proliferation, MOLM-13; format: cell-based; conditions: Homo sapiens, 168 h, 7 days, PrestoBlue cell viability
Description: as §1, §2, §3

[4] = test system: MEIS1; assay: Test 3: inhibition of mRNA transcription, MEIS1 in MV4;11 cells; format: cell-based; conditions: for mRNA at 1 μM (% control) MEIS1: MV4;11 cells, 20 to 24 hours, fitted with GAPDH; for mRNA transcription inhibition activity (in words): summary of Test 3 table, MEIS1 and HOXA9, MV4;11 cells, 1 μM
Description: (§4) Test 3: Test for the Inhibition of mRNA Transcription with Test Compounds
(§5) MV4; 11 cells were obtained from American Type Culture Collection (ATCC). The cells were cultured at 37° C. in the presence of 5% CO2 in RPMI 1640 medium containing 10% fetal bovine serum and 1% penicillin/streptomycin. To the MV4; 11 cells was added each test compound to adjust the final concentration to 1 μmol/L, and the cells were cultured at 37° C. in the presence of 5% CO2 for 20 to 24 hours. After the incubation, the total RNA was extracted from the cells with RNeasy™ Mini Kit (QIAGEN, 74106), and CDNA was synthesized with Superscript™ VILO™ CDNA Synthesis Kit (Invitrogen, #11754250). By using TaqMan™ Gene Expression Master Mix (Applied Biosystems, 4369016) and TaqMan™ probe (Applied Biosystems), the expression level of mRNA was quantified from the obtained cDNA with 7900HT (Applied Biosystems). The mRNA expression level of each obtained gene was fitted with the expression level of mRNA of GAPDH.

[5] = test system: HOXA9; assay: Test 3: inhibition of mRNA transcription, HOXA9 in MV4;11 cells; format: cell-based; conditions: 20 to 24 hours, fitted with GAPDH
Description: as §4, §5

SMILES	IC50 [1]	IC50 [2]	IC50 [3]	mRNA at 1 μM (% control) MEIS1 [4]	mRNA at 1 μM (% control) HOXA9 [5]	cell proliferation inhibition activity, good (in words) [1]	menin-MLL binding inhibition activity (in words) ([2]; summary of Test 1 table)	mRNA transcription inhibition activity (in words) [4]
N#Cc1cnc2sc(CC(F)(F)F)cc2c1N1CC2(CN(C(=O)[C@H]3N[C@H]4CC[C@@H]3[C@@H](F)[C@H]4CC3CC3)C2)C1 [Example 14, 4-{6-[(1S,3S,4S,5S,6S)-6-(cyclopropylmethyl)-5-fluoro-2-azabicyclo[2.2.2]octane-3-carbonyl]-2,6-diazaspiro[3.3]heptan-2-yl}-2-(2,2,2-trifluoroethyl)thieno[2,3-b]pyridine-5-carbonitrile]	260 nM	21.7 nM	550 nM	38.5 % control	51.4 % control	good cell proliferation inhibition activity	potent menin-MLL binding inhibition activity	mRNA transcription inhibition activity
O=C([C@H]1N[C@H]2CC[C@@H]1[C@@H](F)[C@H]2CC1CC1)N1CC2(C1)CN(c1c(C(F)(F)F)cnc3sc(CC(F)(F)F)cc13)C2 [Example 13, [(1S,3S,4S,5S,6S)-6-(cyclopropylmethyl)-5-fluoro-2-azabicyclo[2.2.2]octan-3-yl]{6-[2-(2,2,2-trifluoroethyl)-5-(trifluoromethyl)thieno[2,3-b]pyridin-4-yl]-2,6-diazaspiro[3.3]heptan-2-yl}methanone]	440 nM	54.2 nM	690 nM	39.6 % control	45.4 % control	good cell proliferation inhibition activity		mRNA transcription inhibition activity
O=C([C@H]1N[C@H]2CC[C@@H]1C[C@H]2CC1CC1)N1CC2(C1)CN(c1c(C(F)(F)F)cnc3sc(CC(F)(F)F)cc13)C2 [Example 3, [(1S,3S,4R,6R)-6-(cyclopropylmethyl)-2-azabicyclo[2.2.2]octan-3-yl]{6-[2-(2,2,2-trifluoroethyl)-5-(trifluoromethyl)thieno[2,3-b]pyridin-4-yl]-2,6-diazaspiro[3.3]heptan-2-yl}methanone]	590 nM	88.6 nM	800 nM	52.6 % control	54.0 % control			
C=C1C[C@@H]2CC[C@H]1[C@@H](C(=O)N1CC3(C1)CN(c1c(C(F)(F)F)cnc4sc(CC(F)(F)F)cc14)C3)N2 [Example 5, [(1S,3S,4R)-5-methylidene-2-azabicyclo[2.2.2]octan-3-yl]{6-[2-(2,2,2-trifluoroethyl)-5-(trifluoromethyl)thieno[2,3-b]pyridin-4-yl]-2,6-diazaspiro[3.3]heptan-2-yl}methanone]	200 nM	92.7 nM	280 nM	32.3 % control	44.3 % control			

Continued, in another order:

IC50 [1]	IC50 [2]	IC50 [3]	SMILES	mRNA at 1 μM (% control) MEIS1 [4]	mRNA at 1 μM (% control) HOXA9 [5]	cell proliferation inhibition activity, good (in words) [1]	menin-MLL binding inhibition activity (in words) ([2]; summary of Test 1 table)	mRNA transcription inhibition activity (in words) [4]
290 nM	48 nM	710 nM	N#Cc1cnc2sc(CC(F)(F)F)cc2c1N1CC2(CN(C(=O)[C@H]3N[C@H]4CC[C@@H]3C[C@H]4CC3CC3)C2)C1 [Example 4, 4-{6-[(1S,3S,4R,6R)-6-(cyclopropylmethyl)-2-azabicyclo[2.2.2]octane-3-carbonyl]-2,6-diazaspiro[3.3]heptan-2-yl}-2-(2,2,2-trifluoroethyl)thieno[2,3-b]pyridine-5-carbonitrile]	47.1 % control	52.5 % control			
190 nM	7 nM	260 nM	N#Cc1cnc2sc(CC(F)(F)F)cc2c1N1CC2(CN(C(=O)[C@H]3N[C@H]4CC[C@@H]3C[C@@H]4CC3CC3)C2)C1 [Example 2, 4-{6-[(1S,3S,4R,6S)-6-(cyclopropylmethyl)-2-azabicyclo[2.2.2]octane-3-carbonyl]-2,6-diazaspiro[3.3]heptan-2-yl}-2-(2,2,2-trifluoroethyl)thieno[2,3-b]pyridine-5-carbonitrile]	26.6 % control	48.2 % control			
